The values that follow are results of earlier work, collected in patent publication US11311529B2, “Topical formulations of 5-α-reductase inhibitors and uses thereof” (Varsona Therapeutics, Inc., priority 2018, dated 2022).

For data set [1], the system named is men. The following applies: oral, over a period of 12 to 24 weeks, compared with oral finasteride.
In data set [2] the test system is DHT. The following applies: 5 mg daily dose, oral, people suffering from BPH.

Regarding `C[C@]12C=CC(=O)N[C@@H]1CC[C@@H]1[C@@H]2CC[C@]2(C)[C@@H](C(=O)Nc3cc(C(F)(F)F)ccc3C(F)(F)F)CC[C@@H]12` [oral dutasteride, (5α,17β)-N-[2,5 bis(trifluoromethyl)phenyl]-3-oxo-4-azaandrost-1-ene-17-carboxamide], the hair count results in data set [1] is “better hair count results than oral finasteride”. The DHT blocked in data set [2] is 98.4%+/−1.2. Regarding `CC(C)(C)NC(=O)[C@H]1CC[C@H]2[C@@H]3CC[C@H]4NC(=O)C=C[C@]4(C)[C@H]3CC[C@]12C` [oral finasteride, finasteride], in data set [2], the DHT blocked was 70.8+/−18.3%.
